Assay results as given in US20230015949A1, “NEISSERIA TREATMENT USING CANNABINOIDS” (priority 2019, published 2023).
In brackets after ≈: the same amount, converted by molar mass. Read-outs that look alike come from different tables or passages of the source.

Key:
[1] = system: Staphylococcus aureus ATCC 29213; test: Broth microdilution MIC assay, quality control strain (Example 2); assay type: cell-based; details: ATCC29213, S. aureus ATCC 29213 (QC), CAMHB
Experimental: (§1) Following incubation, colonies were harvested from these plates and cell suspensions prepared and frozen at −80° C. with a cryoprotectant. Prior to testing, N. gonorrhoeae isolates were streaked onto Chocolate Agar [Becton Dickinson, (BD), Sparks, Md.; Lot No. 922807]; Staphylococcus aureus ATCC 29213 tested for quality control (QC) purposes was streaked onto Trypticase Soy Agar with 5% Sheep Blood (TSA II; BD; Lot No. 9219399).
Cation-adjusted Mueller Hinton broth (CAMHB; BD; Lot No. 9019592) was used for MIC testing of S. aureus ATCC 29213 for QC purposes.
(§2) MIC values were determined using a broth microdilution procedure described by CLSI (1, 2). Automated liquid handlers (Multidrop 384, Labsystems, Helsinki, Finland; Biomek 2000 and Biomek FX, Beckman Coulter, Fullerton Calif.) were used to conduct serial dilutions and liquid transfers.
(§3) To prepare the drug mother plates, which would provide the serial drug dilutions for the replicate daughter plates, the wells of columns 2 through 12 of standard 96-well microdilution plates (Costar 3795) were filled with 150 μl of the designated diluent for each row of drug. The test articles and comparator compounds (300 μl at 100× the highest concentration to be tested) were dispensed into the appropriate wells in column 1. The Biomek 2000 was then used to make 2-fold serial dilutions in the mother plates from column 1 through column 11. The wells of column 12 contained no drug and served as the organism growth control wells for the assay.
(§4) The daughter plates were loaded with 190 μL per well of the appropriate test medium for the tested organism using the Multidrop 384. The daughter plates were completed on the Biomek FX instrument which transferred 2 μL of drug solution from each well of a mother plate to the corresponding well of each daughter plate in a single step. Daughter plates for the testing of anaerobes were allowed to pre-reduce in the Bactron II anaerobe chamber for 2 hr prior to inoculation.
A standardized inoculum of each test organism was prepared per CLSI methods (1, 2). The inoculum for each organism was dispensed into sterile reservoirs divided by length (Beckman Coulter), and the Biomek 2000 was used to inoculate the plates. Daughter plates were placed on the Biomek 2000 work surface in reverse orientation so that inoculation took place from low to high drug concentration. Anaerobic organisms were inoculated by hand in the Bactron II anaerobic chamber. Bacterial plates were then inoculated with 10 μL of the inoculum resulting in a final cell density of approximately 5×10^5 CFU/mL.
Plates were stacked 3 to 4 high, covered with a lid on the top plate and placed in plastic bags. […] The MIC was read and recorded as the lowest concentration of drug that inhibited visible growth of the organism.

Neisseria gonorrhoeae = test: Broth microdilution MIC assay, 30 isolates (Example 2); assay type: cell-based
Experimental: In this study, the in vitro spectrum of activity of CBD was determined against 30 isolates comprised of reference strains from the WHO, isolates from the CDC antibiotic resistance bank, and clinical isolates from the Micromyx (MMX) repository, with different resistance phenotypes. Assays were conducted following guidelines recommended by the Clinical and Laboratory Standards Institute (CLSI; 1, 2) with the exception that broth microdilution was used instead of agar dilution.
Stock solutions of all compounds were prepared on the day of testing using solvents recommended by CLSI. Stock solutions of all compounds were made at 101× the final testing concentration. CBD was supplied by Cerilliant (Round Rock, Tex.) as a 1 mg/mL methanolic solution which was stored at −20° C. after receipt. Prior to testing, using a 5 mL aliquot of the CBD methanolic solution, the methanol was dried off and the residual CBD was resuspended in 774 μL DMSO resulting in a 6.464 mg/mL solution.
The test organisms evaluated in this study consisted of Neisseria gonorrhoeae isolates from the Micromyx repository and reference isolates from the American Type Culture Collection (ATCC; Manassas, Va.), Centers for Disease Control and Prevention (CDC; Atlanta, Ga.) or the National Collection of Type Cultures (NCTC; Public Health England, Salisbury, UK). Upon initial receipt at Micromyx, the organisms were sub-cultured onto an appropriate agar medium.
as §1
For N. gonorrhoeae, a modified medium described by the ATCC as capable of supporting the growth of N. gonorrhoeae (Neisseria peptone medium) was used for the broth microdilution MIC assay. This medium contained 15 g Oxoid Special Peptone (Lot No. 1280296; Oxoid, Hampshire, UK), 1 g corn starch (Lot No. AD-13344-14; Ward's Science; Rochester, N.Y.), 5 g NaCl (Lot No. 57897; VWR, Radnor, Pa.), 4 g K2HPO4 (Lot No. SLBT7061; Sigma), and 1 g KH2PO4 (Lot No. SLBC1921V; Sigma). After autoclaving, the medium was centrifuged at 5,000×g for 10 min, the supernatant was passed through a 0.45 μm filter, and IsoVitaleX supplement (Lot No. 8323954; BD) was added at 1% (v/v).
as §2, §3, §4

[2] = 30 isolates of N. gonorrhoeae, broth microdilution
[3] = 30 isolates of N. gonorrhoeae, broth microdilution, MIC distribution
[4] = 30 isolates, broth dilution assay, MIC distribution (Table 6)

`CO/N=C(\C(=O)N[C@@H]1C(=O)N2C(C(=O)O)=C(CSc3nc(=O)c(=O)[nH]n3C)CS[C@H]12)c1csc(N)n1` [CRO, ceftriaxone] was tested, and the MIC [1] was 2 µg/mL (≈ 3.61 µM), the MIC50 (Neisseria gonorrhoeae; [2]) was at most 8 ng/mL and the “MIC Range” value (Neisseria gonorrhoeae; [2]) was ≤0.008 − 1 μg/mL. For the same compound, the “Number of isolates at MIC value 0.015 μg/mL” value (Neisseria gonorrhoeae; [3]) was 5, the “Number of isolates at MIC value 0.03 μg/mL” value (Neisseria gonorrhoeae; [3]) was 2 and the “Number of isolates at MIC value 0.06 μg/mL” value (Neisseria gonorrhoeae; [3]) was 1. For the same compound, the “Number of isolates at MIC value 0.5 μg/mL” value (Neisseria gonorrhoeae; [3]) was 1, the “Number of isolates at MIC value 1 μg/mL” value (Neisseria gonorrhoeae; [3]) was 1 and the “Number of isolates at MIC value 2 μg/mL” value (Neisseria gonorrhoeae; [3]) was 0. For the same compound, the “Number of isolates at MIC value 4 μg/mL” value (Neisseria gonorrhoeae; [3]) was 0, the “Number of isolates at MIC value 8 μg/mL” value (Neisseria gonorrhoeae; [3]) was 0 and the “Number of isolates at MIC value <0.008 μg/mL” value (Neisseria gonorrhoeae; [3]) was 20. For the same compound, the “Number of isolates at MIC value >8 μg/mL” value (Neisseria gonorrhoeae; [3]) was 0, the “Number of isolates at MIC value […]” value (Neisseria gonorrhoeae; [3]) was 0 and the “MIC Range” value (Neisseria gonorrhoeae; 30 isolates of N. gonorrhoeae, broth microdilution, listed as ceftriaxone) was at most 0.008 to 1 µg/mL. For the same compound, the “Number of isolates at MIC 0.08 μg mL^−1” value (Neisseria gonorrhoeae; [4]) was 0, the “Number of isolates at MIC ≤0.004 μg mL^−1” value (Neisseria gonorrhoeae; [4]) was 20 and the MIC (Neisseria gonorrhoeae; N. gonorrhoeae ATCC 49226 (QC), broth microdilution) was “£0.008 μg/mL”. It also gave an MIC (Neisseria gonorrhoeae; Neisseria gonorrhoeae, ATCC49226, N. gonorrhoeae ATCC 49226 (QC), broth microdilution, read-out: MIC) of at most 8 ng/mL, an MIC (Neisseria gonorrhoeae; Neisseria gonorrhoeae, N. gonorrhoeae CDC 0165 (CIP-R, AZI MIC 1), broth microdilution, read-out: MIC) of 15 ng/mL (≈ 0.027 µM) and an MIC (Neisseria gonorrhoeae; Neisseria gonorrhoeae, N. gonorrhoeae CDC 0166 (CIP-R, AZI MIC 1), broth microdilution, read-out: MIC) of 15 ng/mL (≈ 0.027 µM). The MIC (Neisseria gonorrhoeae; Neisseria gonorrhoeae, N. gonorrhoeae CDC 0167 (CIP-S, AZI MIC 8), broth microdilution, read-out: MIC) was at most 8 ng/mL, the MIC (Neisseria gonorrhoeae; Neisseria gonorrhoeae, N. gonorrhoeae CDC 0172 (CIP-R, AZI MIC 0.5), broth microdilution, read-out: MIC) was at most 8 ng/mL and the MIC (Neisseria gonorrhoeae; Neisseria gonorrhoeae, N. gonorrhoeae CDC 0175 (CIP-S, AZI MIC 16), broth microdilution, read-out: MIC) was at most 8 ng/mL. It also gave an MIC (Neisseria gonorrhoeae; Neisseria gonorrhoeae, N. gonorrhoeae CDC 0177 (CIP-S, AZI MIC 2), broth microdilution, read-out: MIC) of at most 8 ng/mL, an MIC (Neisseria gonorrhoeae; Neisseria gonorrhoeae, N. gonorrhoeae CDC 0181 (CIP-S, AZI MIC 256), broth microdilution, read-out: MIC) of at most 8 ng/mL and an MIC (Neisseria gonorrhoeae; Neisseria gonorrhoeae, N. gonorrhoeae CDC 0194 (CRO-NS, CIP-S, AZI MIC 0.5), broth microdilution, read-out: MIC) of 30 ng/mL (≈ 0.0541 µM). The MIC (Neisseria gonorrhoeae; Neisseria gonorrhoeae, N. gonorrhoeae MMX 6921 (CIP-R), broth microdilution, read-out: MIC) was at most 8 ng/mL, the MIC (Neisseria gonorrhoeae; Neisseria gonorrhoeae, N. gonorrhoeae MMX 6938 (CIP-S), broth microdilution, read-out: MIC) was at most 8 ng/mL and the MIC (Neisseria gonorrhoeae; Neisseria gonorrhoeae, N. gonorrhoeae MMX 10409 (CIP-R), broth microdilution, read-out: MIC) was 15 ng/mL (≈ 0.027 µM). For the same compound, the MIC (Neisseria gonorrhoeae; Neisseria gonorrhoeae, N. gonorrhoeae MMX 10410 (CIP-S), broth microdilution, read-out: MIC) was at most 8 ng/mL, the MIC (Neisseria gonorrhoeae; Neisseria gonorrhoeae, N. gonorrhoeae MMX 10447 (CIP-S), broth microdilution, read-out: MIC) was at most 8 ng/mL and the MIC (Neisseria gonorrhoeae; Neisseria gonorrhoeae, N. gonorrhoeae MMX 10450 (CIP-S), broth microdilution, read-out: MIC) was at most 8 ng/mL. The MIC (Neisseria gonorrhoeae; Neisseria gonorrhoeae, N. gonorrhoeae MMX 10452 (CIP-R), broth microdilution, read-out: MIC) was at most 8 ng/mL, the MIC (Neisseria gonorrhoeae; Neisseria gonorrhoeae, N. gonorrhoeae MMX 10454 (CIP-R), broth microdilution, read-out: MIC) was 15 ng/mL (≈ 0.027 µM) and the MIC (Neisseria gonorrhoeae; Neisseria gonorrhoeae, NCTC13477, N. gonorrhoeae NCTC 13477 (WHO F; CIP-S, AZI MIC […]), broth microdilution, read-out: MIC) was at most 8 ng/mL. It also gave an MIC (Neisseria gonorrhoeae; Neisseria gonorrhoeae, NCTC13478, N. gonorrhoeae NCTC 13478 (WHO G; CIP-I, AZI MIC […]), broth microdilution, read-out: MIC) of at most 8 ng/mL, an MIC (Neisseria gonorrhoeae; Neisseria gonorrhoeae, NCTC13479, N. gonorrhoeae NCTC 13479 (WHO K; CIP-R, AZI MIC […]), broth microdilution, read-out: MIC) of 30 ng/mL (≈ 0.0541 µM) and an MIC (Neisseria gonorrhoeae; Neisseria gonorrhoeae, NCTC13480, N. gonorrhoeae NCTC 13480 (WHO L; CIP-R, AZI MIC 0.5), broth microdilution, read-out: MIC) of 60 ng/mL (≈ 0.108 µM). The MIC (Neisseria gonorrhoeae; Neisseria gonorrhoeae, NCTC13481, N. gonorrhoeae NCTC 13481 (WHO M; CIP-R, AZI MIC […]), broth microdilution, read-out: MIC) was at most 8 ng/mL, the MIC (Neisseria gonorrhoeae; Neisseria gonorrhoeae, NCTC13482, N. gonorrhoeae NCTC 13482 (WHO N; CIP-R, AZI MIC […]), broth microdilution, read-out: MIC) was at most 8 ng/mL and the MIC (Neisseria gonorrhoeae; Neisseria gonorrhoeae, NCTC13483, N. gonorrhoeae NCTC 13483 (WHO O; CIP-S, AZI MIC […]), broth microdilution, read-out: MIC) was at most 8 ng/mL. It also gave an MIC (Neisseria gonorrhoeae; Neisseria gonorrhoeae, NCTC13484, N. gonorrhoeae NCTC 13484 (WHO P; CIP-S, AZI MIC 4), broth microdilution, read-out: MIC) of at most 8 ng/mL, an MIC (Neisseria gonorrhoeae; Neisseria gonorrhoeae, NCTC13817, N. gonorrhoeae NCTC 13817 (WHO U; CIP-S, AZI MIC 4), broth microdilution, read-out: MIC) of at most 8 ng/mL and an MIC (Neisseria gonorrhoeae; Neisseria gonorrhoeae, NCTC13818, N. gonorrhoeae NCTC 13818 (WHO V; CIP-R, AZI MIC >256), broth microdilution, read-out: MIC) of at most 8 ng/mL. The MIC (Neisseria gonorrhoeae; Neisseria gonorrhoeae, NCTC13819, N. gonorrhoeae NCTC 13819 (WHO W; CIP-R, AZI MIC 0.5), broth microdilution, read-out: MIC) was 15 ng/mL (≈ 0.027 µM), the MIC (Neisseria gonorrhoeae; Neisseria gonorrhoeae, NCTC13820, N. gonorrhoeae NCTC 13820 (WHO X; CRO-NS, CIP-R, AZI MIC 0.5), broth microdilution, read-out: MIC) was 1000 ng/mL (≈ 1.8 µM) and the MIC (Neisseria gonorrhoeae; Neisseria gonorrhoeae, NCTC13821, N. gonorrhoeae NCTC 13821 (WHO Y; CIP-R, AZI MIC 1), broth microdilution, read-out: MIC) was 500 ng/mL (≈ 0.902 µM). For the same compound, the MIC50 (Neisseria gonorrhoeae; Neisseria gonorrhoeae, 30 isolates of N. gonorrhoeae, broth microdilution, read-out: MIC50) was at most 8 ng/mL, the MIC90 (Neisseria gonorrhoeae; Neisseria gonorrhoeae, 30 isolates of N. gonorrhoeae, broth microdilution, read-out: MIC90) was 0.03 µg/mL (≈ 0.0541 µM) and the MIC (Neisseria gonorrhoeae; Neisseria gonorrhoeae, 30 isolates of N. gonorrhoeae, broth microdilution, read-out: MIC Mode) was at most 8 ng/mL.
